# In US9884048B2, “ERK inhibitors” (Merck Sharp & Dohme Corp., priority 2014, dated 2018):
# Target: phosphorylated active hERK2 enzyme (Homo sapiens (Human), UniProt P28482)
# Settings: not given
# Chain of phosphorylated active hERK2 enzyme (P28482 whole entry): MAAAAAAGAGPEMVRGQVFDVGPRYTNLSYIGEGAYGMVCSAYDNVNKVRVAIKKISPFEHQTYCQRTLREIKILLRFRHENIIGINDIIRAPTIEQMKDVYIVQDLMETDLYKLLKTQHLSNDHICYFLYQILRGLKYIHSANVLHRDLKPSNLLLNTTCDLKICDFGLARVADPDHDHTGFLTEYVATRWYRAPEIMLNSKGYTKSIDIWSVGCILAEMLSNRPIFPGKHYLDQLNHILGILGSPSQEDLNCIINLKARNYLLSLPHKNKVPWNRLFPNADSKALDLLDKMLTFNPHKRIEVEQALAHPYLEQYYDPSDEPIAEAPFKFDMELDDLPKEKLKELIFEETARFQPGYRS
row,IC50,SMILES
1,23.1 nM,"Cc1cc(-n2ncc3cc(NC(=O)N[C@H]4CCCC[C@H]4Cc4ccccc4)ncc32)ccn1 (racemic) [Example 167, Racemic cis 1-[(1S,2S) and (1R,2R)-2-benzylcyclohexyl]-3-[1-(2-methylpyridin-4-yl)-1H-pyrazolo[3,4-c]pyridin-5-yl)urea]"

# Same assay, conditions: read-out: ERK2 IC50; IMAP-FP assay; 0.5 nM hERK2, 30 μM ATP; 10 point titration, 3 μM starting concentration
row,SMILES,IC50
1,"O=C(NCc1ccc(F)cc1)Nc1cc2cnn(-c3ccncc3)c2cn1 [Example 6, 1-(4-fluorobenzyl)-3-(1-pyridin-4-yl-1H-pyrazolo[3,4-c]pyridin-5-yl)urea]",1.8 nM
2,"O=C(NCc1ccc(Cl)cc1)Nc1cc2cnn(-c3ccncc3)c2cn1 [Example 42, 1-(4-chlorobenzyl)-3-(1-pyridin-4-yl-1H-pyrazolo[3,4-c]pyridin-5-yl)urea]",8.03 nM
3,"Cc1cc(-n2ncc3cc(NC(=O)N[C@@H]4CN(C)C[C@H]4c4ccccc4)ncc32)ccn1 [Example 181, 1-((3S,4R)1-methyl-4-phenyl-pyrrolidin-3-yl)-3-[1-(2-methyl-pyridin-4-yl)-1H-pyrazolo[3,4-c]pyridin-5-yl]urea]",0.983 nM
4,"Cc1cc(-n2ncc3cc(NC(=O)NCc4cn(C)cn4)ncc32)ccn1 [Example 108, 1-[(1-methyl-1H-imidazol-4-yl)methyl]-3-[1-(2-methylpyridin-4-yl)-1H-pyrazolo[3,4-c]pyridin-5-yl)urea]",284 nM
5,"Cc1cc(-n2ncc3cc(NC(=O)N[C@H]4CNC[C@@H]4Oc4cncc(F)c4)ncc32)ccn1 [Example 275, 1-{(3S,4S)-4-[(5-fluoropyridin-3-yl)oxy]pyrrolidin-3-yl}-3-[1-(2-methylpyridin-4-yl)-1H-pyrazolo[3,4-c]pyridin-5-yl]urea]",327 nM
6,"Cc1cc(-n2ncc3cc(NC(=O)N[C@@H]4[C@@H](C)N(C)C[C@H]4c4ccccc4C)ncc32)ccn1 [Example 104, 1-[(2R,3S,4R)-1,2-dimethyl-4-(2-methyl-phenyl)pyrrolidin-3-yl]-3-[1-(2-methylpyridin-4-yl)-1H-pyrazolo[3,4-c]pyridin-5-yl]urea]",35.5 nM
7,"CC(C)(O)[C@@H](NC(=O)Nc1cc2cnn(-c3ncc4c(n3)CNCC4)c2cn1)c1ccc(F)cc1 [Example 317, 1-[(1S)-1-(4-fluorophenyl)-2-hydroxy-2-methylpropyl]-3-[1-(5,6,7,8-tetrahydropyrido[3,4-d]pyrimidin-2-yl)-1H-pyrazolo[3,4-c]pyridin-5-yl]urea]",327 nM
8,"Cc1cc(-n2ncc3cc(NC(=O)N[C@H]4CN(C)C[C@@H]4CCc4ccccc4)ncc32)ccn1 [Example 115, 1-[(3R,4S)-1-methyl-4-(2-phenylethyl)pyrrolidin-3-yl]-3-[1-(2-methylpyridin-4-yl)-1H-pyrazolo[3,4-c]-pyridin-5-yl)urea]",0.689 nM
9,"CNC(=O)c1ccc(CNC(=O)Nc2cc3cnn(-c4ccnc(C)c4)c3cn2)cc1 [Example 92, N-methyl-4-[({[1-(2-methylpyridin-4-yl)-1H-pyrazolo[3,4-c]pyridin-5-yl]carbamoyl}amino)methyl] benzamide]",801 nM
10,"Cc1cc(-n2ncc3cc(NC(=O)N[C@H]4CCC[C@@H]4Oc4ccccc4)ncc32)ccn1 [Example 161, 1-[1-(2-methylpyridin-4-yl)-1H-pyrazolo[3,4-c]pyridin-5-yl]-3-[(1S,2S)-2-phenoxycyclopentyl]urea]",13.4 nM
11,"Cc1cc(-n2ncc3cc(NC(=O)N[C@H]4[C@H](c5ccccc5C)CN(C)[C@H]4C)ncc32)ccn1 [Example 101, 1-[(2S,3S,4R)-1,2-dimethyl-4-(2-methylphenyl)-pyrrolidin-3-yl]-3-[1-(2-methylpyridin-4-yl)-1H-pyrazolo[3,4-c]pyridin-5-yl)urea]",0.5 nM
12,"Cn1cc(-n2ncc3cc(NC(=O)NCc4cccc(Cl)c4)ncc32)cn1 [Example 216, 1-(3-chlorobenzyl)-3-[1-(1-methyl-1H-pyrazol-4-yl)-1H-pyrazolo[3,4-c]pyridin-5-yl]urea]",15.7 nM
13,"Cc1cc(-n2ncc3cc(NC(=O)N[C@H]4CN(C)C[C@@H]4c4ccccc4C)ncc32)ccn1 [Example 180, 1-[(3R,4S)-1-methyl-4-(2-methylphenyl)pyrrolidin-3-yl]-3-[1-(2-methylpyridin-4-yl)-1H-pyrazolo[3,4-c]pyridin-5-yl]urea]",0.28 nM
14,"Cc1cc(-n2ncc3cc(NC(=O)N[C@H]4CN(C)C5(COC5)[C@@H]4c4ccccc4)ncc32)ccn1 [Example 202, 1-[(7R,8R)-5-methyl-8-phenyl-2-oxa-5-azaspiro[3.4]oct-7-yl]-3-[1-(2-methylpyridin-4-yl)-1H-pyrazolo[3,4-c]pyridin-5-yl]urea]",300 nM
15,"Cc1cc(-n2ncc3cc(NC(=O)NC45CC6CC(CC(O)(C6)C4)C5)ncc32)ccn1 [Example 77, 1-(3-hydroxytricyclo[3.3.1.1~3,7~]dec-1-yl)-3-[1-(2-methylpyridin-4-yl)-1H-pyrazolo[3,4-c]pyridin-5-yl)urea]",1880 nM
16,"Cc1cc(-n2ncc3cc(NC(=O)NCCOc4ccc(F)cc4)ncc32)ccn1 [Example 85, 1-[2-(4-fluorophenoxy)ethyl]-3-[1-(2-methylpyridin-4-yl)-1H-pyrazolo[3,4-c]pyridin-5-yl)urea]",15.9 nM

# Continued, values first:
row,IC50,SMILES
1,10.9 nM,"Cc1cc(-n2ncc3cc(NC(=O)NC(C)c4csc(C)n4)ncc32)ccn1 (stereo not shown) [Example 131, 1-[1-(2-methylpyridin-4-yl)-1H-pyrazolo[3,4-c]pyridin-5-yl]-3-[1-(2-methyl-1,3-thiazol-4-yl)ethyl]urea]"
2,0.962 nM,"Cc1cc(-n2ncc3cc(NC(=O)NC(CN)c4ccccc4)ncc32)ccn1 (stereo not shown) [Example 62, 1-(2-amino-1-phenylethyl)-3-[1-(2-methylpyridin-4-yl)-1H-pyrazolo[3,4-c]pyridin-5-yl]urea]"
3,20.6 nM,"CCN1C[C@@H](NC(=O)Nc2cc3cnn(-c4ccnc(C)c4)c3cn2)[C@H](c2ccccc2)C1 [Example 200, 1-[(3S,4R)-1-ethyl-4-phenylpyrrolidin-3-yl]-3-[1-(2-methylpyridin-4-yl)-1H-pyrazolo[3,4-c]pyridin-5-yl]urea]"
4,15.6 nM,"Cc1cc(-n2ncc3cc(NC(=O)N[C@H](C)c4ccccc4Cl)ncc32)ccn1 [Example 44, 1-[(1R)-1-(2-chlorophenyl)ethyl]-3-[1-(2-methylpyridin-4-yl)-1H-pyrazolo[3,4-c]pyridin-5-yl]urea]"
5,62.2 nM,"CC(C)n1ncc2cc(NC(=O)N[C@H](C)c3ccccc3)nc(CO)c21 [Example 302, 1-[7-(hydroxymethyl)-1-(1-methylethyl)-1H-pyrazolo[3,4-c]pyridin-5-yl]-3-[(1R)-1-phenylethyl]urea]"
6,40.7 nM,"Cc1cc(-n2ncc3cc(NC(=O)NC4CCOc5ccccc54)ncc32)ccn1 (stereo not shown) [Example 172, 1-(3,4-dihydro-2H-chromen-4-yl)-3-[1-(2-methylpyridin-4-yl)-1H-pyrazolo[3,4-c]pyridin-5-yl)urea]"
7,11.1 nM,"COCc1nc(NC(=O)N[C@H](C)c2ccccc2)cc2cnn(-c3ccnc(C)c3)c12 [Example 247, 1-[7-(methoxymethyl)-1-(2-methylpyridin-4-yl)-1H-pyrazolo[3,4-c]pyridin-5-yl]-3-[(1R)-1-phenylethyl]urea]"
8,59.7 nM,"Cc1cc(-n2ncc3cc(NC(=O)N[C@H]4CN(C)C[C@@H]4c4ccccc4)ncc32)ccn1 [Example 182, 1-((3R,4S)1-methyl-4-phenyl-pyrrolidin-3-yl)-3-[1-(2-methyl-pyridin-4-yl)-1H-pyrazolo[3,4-c]pyridin-5-yl]urea]"
